This is an account of results in ChEMBL document CHEMBL5291721, “A preclinical secondary pharmacology resource illuminates target-adverse drug reaction associations of marketed drugs” (Nat Commun, 2023).

The target of assay [1] is T1, Alpha-2B adrenergic receptor (Homo sapiens, UniProt P18089).
T1 sequence (P18089 whole entry): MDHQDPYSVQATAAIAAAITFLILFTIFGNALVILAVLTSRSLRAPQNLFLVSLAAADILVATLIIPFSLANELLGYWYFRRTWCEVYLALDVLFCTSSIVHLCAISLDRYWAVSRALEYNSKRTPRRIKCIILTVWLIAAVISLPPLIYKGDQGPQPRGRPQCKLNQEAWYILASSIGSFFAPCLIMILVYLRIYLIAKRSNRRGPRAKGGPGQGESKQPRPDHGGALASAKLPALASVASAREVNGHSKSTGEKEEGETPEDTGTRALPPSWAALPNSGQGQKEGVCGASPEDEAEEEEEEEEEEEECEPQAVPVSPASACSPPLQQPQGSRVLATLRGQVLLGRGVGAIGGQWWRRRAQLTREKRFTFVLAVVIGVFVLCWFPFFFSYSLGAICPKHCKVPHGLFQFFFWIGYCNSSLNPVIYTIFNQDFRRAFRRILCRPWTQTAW

Assay [2] deals with T2, Neuropeptide Y receptor type 1 (Homo sapiens, UniProt P25929).
T2 sequence (P25929 whole entry): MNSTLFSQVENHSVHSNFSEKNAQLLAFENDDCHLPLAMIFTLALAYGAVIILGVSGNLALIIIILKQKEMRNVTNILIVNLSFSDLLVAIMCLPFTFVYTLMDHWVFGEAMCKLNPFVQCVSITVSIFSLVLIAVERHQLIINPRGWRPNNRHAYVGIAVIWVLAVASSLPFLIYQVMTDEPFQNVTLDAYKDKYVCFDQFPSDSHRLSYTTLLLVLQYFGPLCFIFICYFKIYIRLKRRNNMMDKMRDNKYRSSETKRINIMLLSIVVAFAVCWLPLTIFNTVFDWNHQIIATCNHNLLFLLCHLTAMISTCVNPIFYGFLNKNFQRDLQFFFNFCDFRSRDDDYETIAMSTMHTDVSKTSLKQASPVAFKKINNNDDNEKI

For another assay, the target named is D(1A) dopamine receptor (Homo sapiens, UniProt P21728). Format: functional, cell-based.
Chain of D(1A) dopamine receptor (P21728 whole entry): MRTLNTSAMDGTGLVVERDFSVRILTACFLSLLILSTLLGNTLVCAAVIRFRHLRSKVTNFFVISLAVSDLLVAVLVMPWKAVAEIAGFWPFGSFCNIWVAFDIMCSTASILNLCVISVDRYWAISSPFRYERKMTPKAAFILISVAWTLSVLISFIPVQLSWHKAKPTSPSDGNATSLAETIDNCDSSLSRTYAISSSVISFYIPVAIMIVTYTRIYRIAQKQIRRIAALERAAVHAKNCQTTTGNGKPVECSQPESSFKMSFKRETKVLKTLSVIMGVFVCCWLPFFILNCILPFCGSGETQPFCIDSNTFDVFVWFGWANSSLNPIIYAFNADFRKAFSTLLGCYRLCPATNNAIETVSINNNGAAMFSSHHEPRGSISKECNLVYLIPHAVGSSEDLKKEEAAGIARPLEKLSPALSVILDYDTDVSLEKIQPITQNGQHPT
A further assay addresses T3, Adenosine receptor A1 (Homo sapiens, UniProt P30542).
T3 sequence (P30542 whole entry): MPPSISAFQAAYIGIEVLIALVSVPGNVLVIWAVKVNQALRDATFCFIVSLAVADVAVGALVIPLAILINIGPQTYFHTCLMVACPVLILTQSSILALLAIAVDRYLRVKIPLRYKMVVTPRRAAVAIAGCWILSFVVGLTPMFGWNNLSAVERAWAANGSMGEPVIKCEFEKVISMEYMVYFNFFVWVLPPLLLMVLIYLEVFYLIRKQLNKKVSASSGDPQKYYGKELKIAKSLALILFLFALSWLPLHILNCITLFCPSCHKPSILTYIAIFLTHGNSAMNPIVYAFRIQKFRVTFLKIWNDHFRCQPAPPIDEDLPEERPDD

Assay [3] concerns the target Delta-type opioid receptor (Homo sapiens, UniProt P41143).
For assay [4], the target named is T4, Alpha-2C adrenergic receptor (Homo sapiens, UniProt P18825).
T4 sequence (P18825 whole entry): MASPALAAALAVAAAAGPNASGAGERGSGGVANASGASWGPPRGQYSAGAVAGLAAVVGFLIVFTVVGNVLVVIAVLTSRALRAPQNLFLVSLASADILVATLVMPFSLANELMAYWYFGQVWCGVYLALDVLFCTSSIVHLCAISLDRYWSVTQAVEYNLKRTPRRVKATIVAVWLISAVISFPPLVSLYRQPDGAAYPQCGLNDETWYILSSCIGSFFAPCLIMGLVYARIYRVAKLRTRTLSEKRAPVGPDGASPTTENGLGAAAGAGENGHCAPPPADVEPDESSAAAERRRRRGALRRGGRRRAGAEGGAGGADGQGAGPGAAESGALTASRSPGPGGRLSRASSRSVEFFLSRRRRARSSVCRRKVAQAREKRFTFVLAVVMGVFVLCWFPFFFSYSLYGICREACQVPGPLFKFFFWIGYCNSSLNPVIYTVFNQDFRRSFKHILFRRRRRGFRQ
It counts as functional.

The target in a further assay is T5, Estrogen receptor (Homo sapiens, UniProt P03372).
T5 sequence (P03372 whole entry): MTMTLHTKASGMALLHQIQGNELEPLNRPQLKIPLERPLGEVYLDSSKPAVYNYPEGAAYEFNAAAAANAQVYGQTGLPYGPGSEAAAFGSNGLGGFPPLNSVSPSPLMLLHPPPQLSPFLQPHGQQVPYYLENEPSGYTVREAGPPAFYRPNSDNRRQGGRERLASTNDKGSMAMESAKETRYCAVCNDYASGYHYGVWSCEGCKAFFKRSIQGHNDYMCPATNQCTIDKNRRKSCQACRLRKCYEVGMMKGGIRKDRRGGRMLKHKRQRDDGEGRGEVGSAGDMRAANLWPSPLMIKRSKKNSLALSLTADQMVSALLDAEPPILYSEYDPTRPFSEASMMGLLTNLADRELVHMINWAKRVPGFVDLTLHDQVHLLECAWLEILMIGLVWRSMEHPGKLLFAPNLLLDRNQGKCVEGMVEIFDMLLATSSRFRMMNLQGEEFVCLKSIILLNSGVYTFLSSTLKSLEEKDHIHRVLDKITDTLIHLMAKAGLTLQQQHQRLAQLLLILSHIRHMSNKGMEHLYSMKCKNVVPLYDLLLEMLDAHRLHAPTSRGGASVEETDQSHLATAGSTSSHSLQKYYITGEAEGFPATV

Assay [5] addresses cGMP-inhibited 3',5'-cyclic phosphodiesterase 3A (Homo sapiens, UniProt Q14432). It counts as functional.
Assay [6] addresses 3',5'-cyclic-AMP phosphodiesterase 4D (Homo sapiens, UniProt Q08499). Format: functional.
Another assay addresses Histamine H3 receptor (Homo sapiens, UniProt Q9Y5N1).
Also: assay procedure not described here.

Chain of cGMP-inhibited 3',5'-cyclic phosphodiesterase 3A (Q14432 whole entry): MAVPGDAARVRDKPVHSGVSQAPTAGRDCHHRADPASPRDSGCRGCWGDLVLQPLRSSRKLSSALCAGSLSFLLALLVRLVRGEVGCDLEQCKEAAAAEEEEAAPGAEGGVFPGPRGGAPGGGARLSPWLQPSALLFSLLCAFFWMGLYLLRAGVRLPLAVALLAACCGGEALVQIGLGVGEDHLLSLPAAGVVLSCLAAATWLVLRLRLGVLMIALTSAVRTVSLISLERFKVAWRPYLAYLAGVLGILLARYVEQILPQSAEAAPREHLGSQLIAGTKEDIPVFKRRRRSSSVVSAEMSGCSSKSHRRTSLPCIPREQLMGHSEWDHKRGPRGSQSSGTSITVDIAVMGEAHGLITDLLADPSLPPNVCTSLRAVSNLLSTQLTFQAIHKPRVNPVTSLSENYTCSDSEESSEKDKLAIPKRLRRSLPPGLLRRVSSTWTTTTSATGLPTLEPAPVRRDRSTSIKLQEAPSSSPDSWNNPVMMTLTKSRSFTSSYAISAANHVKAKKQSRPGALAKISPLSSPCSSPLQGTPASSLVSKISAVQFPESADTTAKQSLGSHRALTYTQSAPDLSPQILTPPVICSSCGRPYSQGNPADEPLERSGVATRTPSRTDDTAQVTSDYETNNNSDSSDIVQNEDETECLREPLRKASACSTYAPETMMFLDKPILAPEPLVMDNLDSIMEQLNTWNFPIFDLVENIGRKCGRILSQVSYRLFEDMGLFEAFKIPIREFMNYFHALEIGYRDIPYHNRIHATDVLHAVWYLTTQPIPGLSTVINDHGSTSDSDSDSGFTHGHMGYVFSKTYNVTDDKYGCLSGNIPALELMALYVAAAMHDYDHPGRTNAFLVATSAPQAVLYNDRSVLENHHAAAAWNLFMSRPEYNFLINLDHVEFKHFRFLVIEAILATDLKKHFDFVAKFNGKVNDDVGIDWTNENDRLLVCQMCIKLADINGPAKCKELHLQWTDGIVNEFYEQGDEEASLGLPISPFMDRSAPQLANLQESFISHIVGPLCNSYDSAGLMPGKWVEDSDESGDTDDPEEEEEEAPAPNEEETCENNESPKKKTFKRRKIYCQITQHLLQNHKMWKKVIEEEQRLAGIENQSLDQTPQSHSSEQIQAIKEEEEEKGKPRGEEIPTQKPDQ
Chain of Delta-type opioid receptor (P41143 whole entry): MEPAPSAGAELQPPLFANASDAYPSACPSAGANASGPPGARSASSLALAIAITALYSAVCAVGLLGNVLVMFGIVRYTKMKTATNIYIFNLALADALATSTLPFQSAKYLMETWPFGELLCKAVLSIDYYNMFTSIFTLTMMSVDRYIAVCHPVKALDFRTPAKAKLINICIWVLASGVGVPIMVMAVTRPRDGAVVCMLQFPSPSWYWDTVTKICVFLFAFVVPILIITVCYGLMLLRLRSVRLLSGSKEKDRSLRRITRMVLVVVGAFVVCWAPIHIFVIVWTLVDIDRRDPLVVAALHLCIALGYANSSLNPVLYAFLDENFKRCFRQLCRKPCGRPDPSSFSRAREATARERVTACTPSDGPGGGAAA
Chain of 3',5'-cyclic-AMP phosphodiesterase 4D (Q08499 whole entry): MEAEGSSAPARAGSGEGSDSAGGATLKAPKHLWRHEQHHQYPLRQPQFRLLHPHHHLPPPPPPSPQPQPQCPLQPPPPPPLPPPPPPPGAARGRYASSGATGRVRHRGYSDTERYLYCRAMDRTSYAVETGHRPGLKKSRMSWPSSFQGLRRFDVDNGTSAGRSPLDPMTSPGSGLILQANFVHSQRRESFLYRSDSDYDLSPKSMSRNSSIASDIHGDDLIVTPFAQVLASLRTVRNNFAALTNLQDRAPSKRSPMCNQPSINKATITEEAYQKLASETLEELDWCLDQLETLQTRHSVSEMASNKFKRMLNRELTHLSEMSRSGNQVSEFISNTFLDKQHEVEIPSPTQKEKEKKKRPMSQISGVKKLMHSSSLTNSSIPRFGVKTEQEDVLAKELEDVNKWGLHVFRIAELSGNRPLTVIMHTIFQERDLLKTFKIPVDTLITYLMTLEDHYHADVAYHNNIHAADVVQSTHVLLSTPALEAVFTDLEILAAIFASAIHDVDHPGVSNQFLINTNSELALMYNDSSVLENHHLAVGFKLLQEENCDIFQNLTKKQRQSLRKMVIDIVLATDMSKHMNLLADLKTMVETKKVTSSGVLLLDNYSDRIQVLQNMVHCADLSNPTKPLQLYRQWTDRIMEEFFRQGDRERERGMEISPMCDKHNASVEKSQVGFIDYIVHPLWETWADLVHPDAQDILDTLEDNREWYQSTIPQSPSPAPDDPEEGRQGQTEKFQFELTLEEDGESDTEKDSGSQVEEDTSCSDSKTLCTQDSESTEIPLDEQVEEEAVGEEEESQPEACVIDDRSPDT
Chain of Histamine H3 receptor (Q9Y5N1 whole entry): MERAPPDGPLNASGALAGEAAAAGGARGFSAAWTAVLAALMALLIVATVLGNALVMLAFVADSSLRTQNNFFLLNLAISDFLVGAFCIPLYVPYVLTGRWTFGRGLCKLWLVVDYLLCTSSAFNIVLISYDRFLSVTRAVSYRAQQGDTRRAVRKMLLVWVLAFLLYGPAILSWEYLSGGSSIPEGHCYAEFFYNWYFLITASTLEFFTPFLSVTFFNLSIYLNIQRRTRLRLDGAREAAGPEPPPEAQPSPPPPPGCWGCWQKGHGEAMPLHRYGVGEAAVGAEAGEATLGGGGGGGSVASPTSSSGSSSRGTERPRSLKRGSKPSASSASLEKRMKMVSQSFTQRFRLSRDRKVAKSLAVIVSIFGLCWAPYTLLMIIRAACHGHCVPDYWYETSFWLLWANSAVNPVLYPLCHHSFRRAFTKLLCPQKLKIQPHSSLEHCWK

The AC50 is the concentration giving half of the maximal activity seen. Read a low AC50 as activity at low concentration. Regarding `CC(=O)OCC(=O)[C@@]12OC3(CCCC3)O[C@@H]1C[C@H]1[C@@H]3CCC4=CC(=O)C=C[C@]4(C)[C@@]3(F)[C@@H](O)C[C@@]12C` [AMCINONIDE], the AC50 in assay [1] is over 10 µM; in [2] it was over 10 µM; on D(1A) dopamine receptor it was over 10 µM; at Adenosine receptor A1, over 10 µM; in assay [3], over 30 µM; in assay [4], over 10 µM. The AC50 (on Estrogen receptor; in [5]; in assay [6]) was over 30 µM each time.
Regarding `CC(C)C(=O)OCC(=O)[C@@]12O[C@H](C3CCCCC3)O[C@@H]1C[C@H]1[C@@H]3CCC4=CC(=O)C=C[C@]4(C)[C@H]3[C@@H](O)C[C@@]12C` [CICLESONIDE], the AC50 in assay [1] is over 10 µM; in assay [2], over 10 µM; on D(1A) dopamine receptor it was over 10 µM; at Adenosine receptor A1, over 30 µM; in assay [3], over 30 µM; in [4] it was over 10 µM. Further, the AC50 (at Estrogen receptor; in [5]; in assay [6]) was over 30 µM throughout.
Consider `CN1C(=O)CC(=O)N(c2ccccc2)c2cc(Cl)ccc21` [CLOBAZAM], for which the AC50 in assay [1] is over 10 µM; in [2], over 10 µM; on D(1A) dopamine receptor, over 10 µM; on Adenosine receptor A1 it was over 10 µM; in [3], over 30 µM; in [4] it was over 10 µM. Further, the AC50 on Estrogen receptor is over 10 µM; in assay [5] it was over 30 µM; in assay [6] it was 10 µM.
Consider `[H]/N=C(/N)c1ccc(NCc2nc3cc(C(=O)N(CCC(=O)O)c4ccccn4)ccc3n2C)cc1` [DABIGATRAN], for which the AC50 (in assay [1]; in assay [2]; on D(1A) dopamine receptor; on Adenosine receptor A1; in assay [3]; in assay [4]) was over 30 µM each time. Besides, the AC50 (at Histamine H3 receptor; in assay [5]; in assay [6]) was over 30 µM in each case.
With `O=C(CCCCC(=O)Nc1c(I)cc(I)c(C(=O)O)c1I)Nc1c(I)cc(I)c(C(=O)O)c1I` [IODIPAMIDE], the AC50 was over 10 µM in [1]; over 10 µM in assay [2]; over 30 µM at D(1A) dopamine receptor; over 10 µM at Adenosine receptor A1; over 30 µM in [3]; over 10 µM in assay [4]. Moreover, the AC50 at Estrogen receptor is over 10 µM; in assay [5], over 30 µM; in assay [6], over 30 µM.
`CC(C)[N+](C)(CCC(C(N)=O)(c1ccccc1)c1ccccc1)C(C)C` [ISOPROPAMIDE]: the AC50 was over 10 µM in [1]; over 10 µM in assay [2]; over 10 µM at D(1A) dopamine receptor; over 10 µM at Adenosine receptor A1; over 30 µM in assay [3]; over 10 µM in [4]. For the same compound, the AC50 on Estrogen receptor was over 10 µM; in assay [5] it was over 30 µM; in [6], over 30 µM.
Regarding `CC/C=C\C/C=C\C/C=C\CCCCCCCC(=O)O` [LINOLENIC ACID], the AC50 (in assay [1]; in assay [2]; at D(1A) dopamine receptor; on Adenosine receptor A1; in [3]; in assay [4]) was over 30 µM in each case. Moreover, the AC50 (at Histamine H3 receptor; in assay [5]; in [6]) was over 30 µM each time.
Regarding `C[C@H]1C[C@@H]2[C@H]([C@@H](O)C[C@@]3(C)[C@H]2CC[C@]3(O)C(=O)COC(=O)CCC(=O)O)[C@@]2(C)C=CC(=O)C=C12` [METHYLPREDNISOLONE HEMISUCCINATE], the AC50 (in assay [1]; in assay [2]; at D(1A) dopamine receptor; on Adenosine receptor A1; in assay [3]; in assay [4]) was over 30 µM each time. For the same compound, the AC50 (at Histamine H3 receptor; in assay [5]; in assay [6]) was over 30 µM each time.
Consider `CCCCC(C)(O)C/C=C/[C@H]1[C@H](O)CC(=O)[C@@H]1CCCCCCC(=O)OC` (some centres not stated) [MISOPROSTOL], for which the AC50 (in [1]; in assay [2]; at D(1A) dopamine receptor; at Adenosine receptor A1; in assay [3]; in assay [4]) was over 30 µM in each case. Besides, the AC50 (on Histamine H3 receptor; in assay [5]; in assay [6]) was over 30 µM throughout.
For `CN1C(=O)CC(c2ccccc2)C1=O` (configuration not stated) [PHENSUXIMIDE], the AC50 is over 10 µM in [1]; over 10 µM in assay [2]; over 10 µM at D(1A) dopamine receptor; over 10 µM on Adenosine receptor A1; over 30 µM in assay [3]; over 10 µM in assay [4]. In addition, the concentration at half-maximal activity (AC50) on Histamine H3 receptor was over 10 µM; in [5], over 30 µM; in [6] it was over 30 µM.
In the case of `Cc1nc2ccc(CN(C)c3ccc(C(=O)N[C@@H](CCC(=O)O)C(=O)O)s3)cc2c(=O)[nH]1` [RALTITREXED], the AC50 (in assay [1]; in [2]; at D(1A) dopamine receptor; on Adenosine receptor A1; in assay [3]; in [4]) was over 30 µM each time. Besides, the AC50 (at Histamine H3 receptor; in assay [5]; in assay [6]) was over 30 µM throughout.
On to `Cc1c(Cl)cccc1Nc1ccccc1C(=O)O` [TOLFENAMIC ACID], for which the AC50 (in assay [1]; in assay [2]; on D(1A) dopamine receptor; at Adenosine receptor A1; in assay [3]; in [4]) was over 30 µM each time. The AC50 (on Histamine H3 receptor; in [5]; in assay [6]) was over 30 µM throughout.
With `CN1CCN(C(=O)OC2c3nccnc3C(=O)N2c2ccc(Cl)cn2)CC1` (configuration not stated) [ZOPICLONE], the AC50 was over 30 µM in [1]; over 30 µM in assay [2]; over 10 µM at D(1A) dopamine receptor; over 30 µM at Adenosine receptor A1; over 10 µM in assay [3]; over 30 µM in assay [4]. Further, the AC50 (at Histamine H3 receptor; in assay [5]; in assay [6]) was over 30 µM in each case.
